Measured values as given in PMC9299503, “Catalytic Control of Spiroketal Formation in Rubromycin Polyketide Biosynthesis” (Angewandte Chemie (International Ed. in English), 2021).

How the values were obtained:
GrhO5 [1] = target: T1, GrhO5 (Streptomyces sp. JP95, UniProt Q8KSX7); experiment: X-ray crystal structure, […] Å; format: binding; settings: ligand-free acceptor state, FAD in OUT
T1 construct: crystallised; domains I-III, residues 1-537 described; construct details only in supplement
T1 sequence (Q8KSX7 1-537): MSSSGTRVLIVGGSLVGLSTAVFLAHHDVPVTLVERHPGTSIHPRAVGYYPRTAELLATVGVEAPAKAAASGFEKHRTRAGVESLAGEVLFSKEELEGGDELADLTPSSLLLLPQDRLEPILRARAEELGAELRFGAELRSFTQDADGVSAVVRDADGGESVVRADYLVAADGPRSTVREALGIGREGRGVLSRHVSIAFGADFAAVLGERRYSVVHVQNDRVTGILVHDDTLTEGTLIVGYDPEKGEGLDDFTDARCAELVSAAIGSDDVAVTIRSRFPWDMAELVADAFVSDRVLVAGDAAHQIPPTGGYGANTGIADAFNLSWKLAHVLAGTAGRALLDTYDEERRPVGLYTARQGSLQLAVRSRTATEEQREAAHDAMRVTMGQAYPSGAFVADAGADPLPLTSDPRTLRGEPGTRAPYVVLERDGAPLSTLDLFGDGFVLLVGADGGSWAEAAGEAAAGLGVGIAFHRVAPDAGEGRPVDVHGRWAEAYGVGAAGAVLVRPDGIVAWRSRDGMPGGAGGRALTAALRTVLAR

GrhO5 [2] = target: T1, GrhO5; experiment: X-ray crystal structure, crystals soaked with […]; format: binding; settings: FAD in OUT, reducible state; bound ligand may be 3 or its reduced form 5 (dihydrocollinone)

Structure (SMILES) | X-ray crystal structure, 1.75 Å (GrhO5 [1]) | X-ray crystal structure, crystals soaked with 3 (GrhO5 [2])
Cc1cc2nc3c(=O)[nH]c(=O)nc-3n(C[C@H](O)[C@H](O)[C@H](O)COP(=O)(O)OP(=O)(O)OC[C@H]3O[C@@H](n4cnc5c(N)ncnc54)[C@H](O)[C@@H]3O)c2cc1C [FAD] | domains I and II are essential for FAD‐ and substrate binding, respectively | –
COc1cc(=O)c2c(=O)c3c(c(=O)c=2c1=O)=C(O)[C@@]1(O)c2c(cc4cc(C)oc(=O)c4c2O)CC[C@@]1(O)C=3O [compound 3, collinone] | – | revealed clear electron density in the open, solvent‐exposed substrate‐binding site
